We go through one sequence from patent publication US11426441B2, “Composition comprising protein phosphatase 1 inhibitory peptide for treating vascular diseases” (BethphaGen Inc., priority 2016, dated 2022).

No end group written: not given here.

The test system of assay [1] is rat aortic smooth muscle cells (RASMCs). Description: RASMC proliferation (PCNA immunostaining, EZ-CyTox cell viability assay). Conditions: synthetic conditions (10% FBS), 3 μM peptide. Format: cell-based. As to the method:
The rat aortic smooth muscle cells (RASMCs) were isolated from the medial layer of the thoracic aorta derived from male Sprague-Dawley rats (body weight, 180-200 g) by an enzymatic reaction with collagenase (50 U/mL, Worthington) and pancreatic elastase (0.25 mg/mL, Sigma-Aldrich) for 4 hours at 37. The cells were collected and resuspended in DMEM containing 20% (v/v) fetal bovine serum. The resuspension was then plated on collagen I (Sigma-Aldrich)-coated glass coverslips and incubated at 37 in an atmosphere of 5% (v/v) CO2 and 95% (v/v) air. Human coronary smooth muscle cells (HCSMCs), pulmonary arterial endothelial cells (PAECs), and pulmonary arterial smooth muscle cells (PASMCs) were purchased from Lonza and cultured in EBM or SmBM (Lonza) supplemented with 0.5 mg/mL hEGF, […], 1 mg/mL hFGF, […] gentamicin/amphotericin-B, and 5% fetal bovine serum. All the cells were cultured at 37 in 5% (v/v) CO2 and 95% (v/v) air. RASMCs and HCSMCs were, respectively, plated at the densities of 1×10^4 cells/cm^2 and 1×10^5 cells/cm^2 for immunostaining and western blotting experiments. For RASMC and PASMC cell proliferation experiments, these cells were cultured in fetal bovine serum-free media for 3 days, and then proliferation was induced by serum addition.
Rat aortic smooth muscle cells (RASMCs) were fixed in 4% (w/v) paraformaldehyde at room temperature for 10 min, washed with PBS, and then transmitted with 0.1% (v/v) Triton X-100 in PBS for 40 min. After washing and blocking with 3% (w/v) BSA in PBS, the cells were incubated overnight at room temperature with antibodies against SERCA2a (1:250), SERCA2b (1:250), and PCNA (1:50). On the following day, the cells were washed with PBS and incubated with anti-rabbit and anti-mouse IgG conjugated to Alexa Fluor 488 and 594, respectively, for 1 hour at room temperature. The cells were treated with FluoroGuard antifade reagent (Bio-Rad, Hercules, Calif., USA), and the coverslips were examined under a fluorescent microscope. […]

Assay [2] concerns cytosolic Ca^2+ level. Description: Intracellular Ca2+ measurement in HCSMCs. Conditions: HCSMCs pretreated 1 hour with 3 μM ψPLB-SE or 15 μM MDL28170, then 50 μM A23187 2 hours. Format: cell-based, human. The method, then:
FIGS. 4a, 4b, 4c and 4d. (4a-4c) HCSMCs were pretreated with 3 μM ψPLB-SE and 15 μM MDL28170 for 1 hour, and then treated with 50 μM A23187 for 2 hours. (4a) Immunostaining was performed with antibodies against SERCA2a and SERCA2b (green). Nuclei were stained with Hoechst (blue). Representative merged images are shown. Scale bar, 50 μm. (4b) Western blot analysis was performed with cell extracts. Data are expressed as the means±SD (n=3-4; *, P<0.05). (4c) Baseline Ca^2+ concentration was measured by lonOptix calcium imaging system. (4d) RASMC were treated with ψPLB-SE or control peptide under the same conditions as described for FIG. 1B. The baseline Ca^2+ concentration was measured by lonOptix calcium imaging system (*, P<0.05).
The intracellular Ca^2+ level was measured in VSMCs by loading cells with 0.5 μM Fura2-AM (Molecular Probes, Eugene Oreg., USA), a Ca^2+-sensitive indicator, for 15 minutes at 37. The fluorescence was recorded using the lonOptix calcium imaging system. VSMCs were stimulated by the exposure to light emitted by a 75 W halogen lamp through either a 340 nm or 380 nm filter. The fluorescent emissions were detected between 480 nm and 520 nm by a photomultiplier tube after an initial illumination at 340 nm for 0.5 second and then at 380 nm during recording. The 340 nm excitation scan was repeated at the end of the protocol, and qualitative changes in the intracellular Ca^2+ level were inferred from the ratio of the Fura2 fluorescent intensity at both wavelengths.

For assay [3], the system named is interaction of PP1 and Akt. Description: PP1 immunoprecipitation of pulmonary tissue lysate. Format: binding. Conditions: ψPLB-SE added upon the precipitation. The method, then: FIGS. 16a, 16b and 16c. (16a-16b) PAECs were treated with 3 μM ψPLB-SE for 1 hour, and protein expression was quantitatively analyzed through western blotting using antibodies against Phospho-eNOS (ser1177), total eNOS, phospho-Akt (Ser473, Thr308), total Akt, and GAPDH. (16c) The pulmonary tissue lysate was subjected to immunoprecipitation using PP1 antibody to investigate the interactions of PP1 with eNOS and Akt depending on the presence or absence of the treatment with ψPLB-SE using respective antibodies therefor.
In order to intensively investigate the interactions of PP1 with eNOS and Akt, the pulmonary tissue lysate was subjected to immunoprecipitation using an antibody against PP1, and the effects of ψPLB-SE on the interactions were investigated by adding ψPLB-SE upon the precipitation. […] The activation of eNOS through the inhibition of the interaction between PP1 and Akt was supplemented through the experiments on the inhibition of the high-order kinase of Akt. The phosphorylation increases of Akt and eNOS due to the inhibition of dephosphorylation were investigated by offsetting the phosphorylation conditions of Akt through the treatment with LY294002, which is an inhibitor of phosphoinositide-3-kinase (PI3K), a known high-order kinase of Akt, at a concentration of 50 μM, followed by ψPLB-SE treatment. […]

Assay [4] deals with SERCA2a. Conditions: in vitro and ex vivo; Oh J G et al. (2013); cited from earlier work.

Take “RAETIEMPQ (not fully specified) [ψPLB-SE, 9-mer PP1 decoy peptide mimicking phosphorylated PLB; conjugated via GGG linker to cell penetrating peptide dNP2 or TAT]”: the “PCNA expression (active cell division)” value in assay [1] (RASMCs) is reported as “completely blocked”. The “increased proliferation of RASMCs (cell proliferation assay)” value in assay [1] (24 hours) is listed as “inhibited”. Moreover, the “elevation of the cytosolic Ca^2+ level by A23187” value in assay [2] is on record as “normalized”. In addition, the “interaction of Akt with PP1 (immunoprecipitation)” value in assay [3] is “attenuated”. Besides, the “SERCA2a activity in the heart after ischemia/reperfusion” value in assay [4] was “restored”.
